Laboratory results published in patent publication US8476256B2, “Diazonamide analogs” (Joyant Pharmaceuticals, Inc., priority 2008, dated 2013).

Assays:
[1] = system: U937 (human leukemic monocyte lymphoma) cell line; assay: Cell viability assay (CELL-TITER-GLO), U937; type: cell-based; conditions: U-937, U937 cells, 48 hour treatment, 1 nM to 1 μM
Protocol: (§1) Cell viability assays were run using standard protocols known to those of skill in art. Cells were plated in 96 well plates at the density of 3,000-10,000 cells per well. Twenty four hours later, cells were treated with increasing concentration of test compounds (1 nM to 1 μM). After another 48 hour, cell survival was measured using CELL-TITER-GLO® reagent (Promega) following the protocol provided by the manufacture. The IC50 value was determined as the concentration of test compound that kills 50% of the cell population.
(§2) Cell viability data generated according to the protocol described herein was generated for representative compounds in the A2058 (human melanoma) and U937 (human leukemic monocyte lymphoma) cell lines. The compound of Example 16 (“Compound J”) was used as a reference compound.

[2] = system: A2058 (human melanoma) cell line; assay: Cell viability assay (CELL-TITER-GLO), A2058; type: cell-based; conditions: A2058 cells, 48 hour treatment, 1 nM to 1 μM
Protocol: as §1, §2

Row | Structure (SMILES) | IC50 [1] [µM] | IC50 [2] [µM]
1 | CC/C=C(\C)C(=O)NC1Cc2ccc3c(c2)[C@]24C5=C(N=C(O5)[C@H](C(C)C)NC1=O)c1ncc(o1)-c1c[nH]c5cccc(c15)-c1cccc2c1NC4O3 (stereo partly drawn) [Example 44] | 0.399 | 0.587
2 | CC(C)[C@H](O)C(=O)N[C@H]1Cc2ccc3c(c2)C24C5=C(N=C(O5)[C@H](C(C)C)NC1=O)c1ncc(o1)-c1c[nH]c5cccc(c15)-c1cc(Br)cc2c1N[C@H]4O3 (stereo partly drawn) [Example 84] | 0.648 | 0.51
3 | COc1ccc2c3c(cn(C)c13)-c1cnc(o1)-c1nc3oc1C14c5cc(ccc5O[C@@H]1Nc1c-2cccc14)CC(NC(=O)[C@@H](O)C(C)C)C(=O)N[C@H]3C(C)C (stereo partly drawn) [Example 79] | 0.027 | 0.022
4 | CCC(O)(CC)C(=O)N[C@H]1Cc2ccc3c(c2)C24C5=C(N=C(O5)[C@H](C(C)C)NC1=O)c1ncc(o1)-c1c[nH]c5c(OC)ccc(c15)-c1cccc2c1N[C@H]4O3 (stereo partly drawn) [Example 81] | 0.054 | 0.123
5 | CC(C)C1NC(=O)[C@@H](NC(=O)[C@@H]2CCCN2)Cc2ccc3c(c2)C24C5=C(N=C1O5)c1ncc(o1)-c1c[nH]c5cccc(c15)-c1cccc2c1N[C@H]4O3 (stereo partly drawn) [Example 36] | > 1 | > 1
6 | CC(C)[C@@H]1NC(=O)C(NC(=O)Cc2cccs2)Cc2ccc3c(c2)[C@]24C5=C(N=C1O5)c1ncc(o1)-c1c[nH]c5cccc(c15)-c1cccc2c1NC4O3 (stereo partly drawn) [Example 64] | > 1 | > 1
7 | COC(=O)c1nc2oc1-c1c[nH]c3cccc(c13)-c1cccc3c1N[C@H]1Oc4ccc5cc4C31c1oc(nc1-2)[C@H](C(C)C)NC(=O)C(NC(=O)[C@@H](O)C(C)C)C5 (stereo partly drawn) [Example 76] | 0.018 | 0.013
8 | CCC(O)(CC)C(=O)N[C@H]1Cc2ccc3c(c2)C24C5=C(N=C(O5)[C@H](C(C)C)NC1=O)c1ncc(o1)-c1c[nH]c5c(O)ccc(c15)-c1cccc2c1N[C@H]4O3 (stereo partly drawn) [Example 80] | 0.182 | 0.183
9 | CC(C)CC(=O)N[C@H]1Cc2ccc3c(c2)[C@]24C5=C(N=C(O5)[C@H](C(C)C)NC1=O)c1ncc(o1)-c1c[nH]c5cccc(c15)-c1cccc2c1NC4O3 (stereo partly drawn) [Example 38] | 0.216 | 0.417
10 | CC(C)[C@H](O)C(=O)N[C@H]1Cc2ccc3c(c2)C24C5=C(N=C(O5)[C@H](C(C)C)NC1=O)c1nc(Cl)c(o1)-c1c(Cl)[nH]c5cccc(c15)-c1cccc2c1N[C@H]4O3 (stereo in doubt) [Example 85, Diazonamide A] | 0.086 | 0.057
11 | CC(C)[C@@H]1NC(=O)C(NC(=O)[C@@H](O)C2CCCCC2)Cc2ccc3c(c2)[C@]24C5=C(N=C1O5)c1ncc(o1)-c1c[nH]c5cccc(c15)-c1cccc2c1NC4O3 (stereo partly drawn) [Example 21] | > 1 | > 1
12 | CC[C@H](C)C(=O)NC1Cc2ccc3c(c2)[C@]24C5=C(N=C(O5)[C@H](C(C)C)NC1=O)c1ncc(o1)-c1c[nH]c5cccc(c15)-c1cccc2c1NC4O3 (stereo partly drawn) [Example 39] | 0.555 | 0.707
13 | CC(C)[C@H](O)C(=O)N[C@H]1Cc2ccc3c(c2)C24C5=C(N=C(O5)[C@H](C(C)C)NC1=O)c1nc(Cl)c(o1)-c1c(Cl)[nH]c5cccc(c15)-c1cc(Cl)cc2c1N[C@H]4O3 (stereo partly drawn) [Example 83] | 0.693 | 0.63
14 | CC(C)[C@@H]1NC(=O)C(NS(C)(=O)=O)Cc2ccc3c(c2)C24C5=C(N=C1O5)c1ncc(o1)-c1c[nH]c5cccc(c15)-c1cccc2c1N[C@H]4O3 (stereo partly drawn) [Example 73] | 0.067 | 0.14
15 | CC(C)=CCC/C(C)=C/CNC1Cc2ccc3c(c2)C24C5=C(N=C(O5)[C@H](C(C)C)NC1=O)c1ncc(o1)-c1c[nH]c5cccc(c15)-c1cccc2c1N[C@H]4O3 (stereo partly drawn) [Example 67] | > 1 | > 1
16 | CCC(O)(CC)C(=O)N[C@H]1Cc2ccc3c(c2)C24C5=C(N=C(O5)[C@H](C(C)C)NC1=O)c1ncc(o1)-c1c[nH]c5cccc(c15)-c1cc(Br)cc2c1N[C@H]4O3 (stereo partly drawn) [Example 87] | > 1 | > 1
17 | CC(C)[C@@H]1NC(=O)C(NC(=O)C2CCCCC2)Cc2ccc3c(c2)[C@]24C5=C(N=C1O5)c1ncc(o1)-c1c[nH]c5cccc(c15)-c1cccc2c1NC4O3 (stereo partly drawn) [Example 51] | 0.276 | 0.235
18 | CC(C)[C@@H]1NC(=O)C(NC(=O)[C@H](O)[C@@H](NC(=O)c2ccccc2)c2ccccc2)Cc2ccc3c(c2)[C@]24C5=C(N=C1O5)c1ncc(o1)-c1c[nH]c5cccc(c15)-c1cccc2c1NC4O3 (stereo partly drawn) [Example 29] | > 1 | > 1
19 | CCCC(C)(C)C(=O)NC1Cc2ccc3c(c2)[C@]24C5=C(N=C(O5)[C@H](C(C)C)NC1=O)c1ncc(o1)-c1c[nH]c5cccc(c15)-c1cccc2c1NC4O3 (stereo partly drawn) [Example 41] | 0.22 | 0.397
20 | CC(C)=CC(=O)NC1Cc2ccc3c(c2)[C@]24C5=C(N=C(O5)[C@H](C(C)C)NC1=O)c1ncc(o1)-c1c[nH]c5cccc(c15)-c1cccc2c1NC4O3 (stereo partly drawn) [Example 42] | 0.221 | 0.409
21 | CC(C)COC(=O)NC1Cc2ccc3c(c2)[C@]24C5=C(N=C(O5)[C@H](C(C)C)NC1=O)c1ncc(o1)-c1c[nH]c5cccc(c15)-c1cccc2c1NC4O3 (stereo partly drawn) [Example 69] | 0.272 | 0.541
22 | CC(C)[C@@H]1NC(=O)C(NC(=O)[C@@H](O)C(C)(C)C)Cc2ccc3c(c2)[C@]24C5=C(N=C1O5)c1ncc(o1)-c1c[nH]c5cccc(c15)-c1cccc2c1NC4O3 (stereo partly drawn) [Example 19] | 0.062 | 0.222
23 | CC(C)[C@@H]1NC(=O)C(NC(=O)[C@H](C)O)Cc2ccc3c(c2)[C@]24C5=C(N=C1O5)c1ncc(o1)-c1c[nH]c5cccc(c15)-c1cccc2c1NC4O3 (stereo partly drawn) [Example 18] | 0.208 | 0.394
24 | CC(C)[C@@H]1NC(=O)C(NC(=O)C(C)(C)O)Cc2ccc3c(c2)[C@]24C5=C(N=C1O5)c1ncc(o1)-c1c[nH]c5cccc(c15)-c1cccc2c1NC4O3 (stereo partly drawn) [Example 22] | 0.146 | 0.23
25 | CC/C=C/C(=O)NC1Cc2ccc3c(c2)[C@]24C5=C(N=C(O5)[C@H](C(C)C)NC1=O)c1ncc(o1)-c1c[nH]c5cccc(c15)-c1cccc2c1NC4O3 (stereo partly drawn) [Example 43] | 0.186 | 0.356
26 | CC(C)[C@H](O)C(=O)NC1Cc2ccc3c(c2)C24C5=C(N=C(O5)[C@H](C(C)C)NC1=O)c1ncc(o1)-c1c[nH]c5c(O)ccc(c15)-c1cccc2c1N[C@H]4O3 (stereo partly drawn) [Example 77] | 0.052 | 0.07
27 | CO[C@](C(=O)NC1Cc2ccc3c(c2)[C@]24C5=C(N=C(O5)[C@H](C(C)C)NC1=O)c1ncc(o1)-c1c[nH]c5cccc(c15)-c1cccc2c1NC4O3)(c1ccccc1)C(F)(F)F (stereo partly drawn) [Example 58] | 0.821 | > 1
28 | CC(C)[C@H](O)C(=O)N[C@H]1Cc2ccc3c(c2)C24C5=C(N=C(O5)[C@H](C(C)C)NC1=O)c1nc(Br)c(o1)-c1c(Cl)[nH]c5cccc(c15)-c1cccc2c1N[C@H]4O3 (stereo partly drawn) [Example 89] | 0.079 | 0.158
29 | CC(C)[C@@H]1NC(=O)C(NC(=O)C2(O)CC2)Cc2ccc3c(c2)[C@]24C5=C(N=C1O5)c1ncc(o1)-c1c[nH]c5cccc(c15)-c1cccc2c1NC4O3 (stereo partly drawn) [Example 25] | 0.42 | 0.769
30 | CC(C)[C@@H]1NC(=O)C(NC(=O)C2(O)CCCC2)Cc2ccc3c(c2)[C@]24C5=C(N=C1O5)c1ncc(o1)-c1c[nH]c5cccc(c15)-c1cccc2c1NC4O3 (stereo partly drawn) [Example 26] | 0.154 | 0.214
